Some results are limits rather than exact numbers.

In assay [1] the target is T1, OXA-24/40 (Acinetobacter baumannii, UniProt Q8RLA6).
T1 construct: made in house
The assay can be described thus: Ki determination, competition assay with nitrocefin (NCF) as substrate. Particulars: corrected for NCF affinity; 5 min pre-incubation; pH 7.4, 25 mM NaHCO3; read-out: Ki OXA-24/40. In kind it is biochemical. As for the experimental part: (§1) The affinity of CR167 for the two different β-lactamases was measured in competition assays using nitrocefin (NCF) as the indicator substrate (Table 1).
(§2) The binding affinity of each of the compounds 6a–e with ADC-33 and with OXA-24/40 was determined after 5 min pre-incubation of boronic acid and the enzyme, using competition assays with nitrocefin (NCF) as the substrate. […] These compounds differ in three structural characteristics: stereochemistry, the presence of the m-carboxylate on the aromatic ring, and the small chain linked to the chiral center. […] Finally, the smaller the steric hindrance is at the R1 position, the higher the affinity is.
(§3) Ki values were determined by using nitrocefin as a reporter substrate and treating the compounds as competitive inhibitors. Steady-state kinetic parameters were determined by combining pure enzyme with nitrocefin in 50 mM NaH2PO4; 25 mM NaHCO3, pH 7.4 (for OXA-24/40); or 50 mM NaH2PO4, pH 7.4 (for ADC-33), at room temperature. Changes in absorbance were measured on a Cary 60 UV−Vis spectrophotometer (Agilent Technologies) and converted to velocity using the change-in-extinction coefficient specific to nitrocefin (ε = 17,400 M^−1·cm^−1 at 482 nm). Initial velocities were fit to the Michaelis–Menten equation, yielding kcat and Km values. Next, the enzyme was challenged with a constant concentration of nitrocefin and increasing amounts of inhibitor. IC50 values were used to calculate Ki values using the Cheng–Prusoff equation as previously described. Specifically, the measurements of the initial velocities were performed with the addition of 100 µM NCF after a 5 min pre-incubation of the enzyme (2 nM) with increasing concentration of the inhibitor [37]. To determine the average velocities (v0), data from three experiments were fit to Equation (1): (1) v0=vu −{vu[I]/IC 50+[I]} where vu represents the NCF uninhibited velocity and IC50 represents the inhibitor concentration that results in a 50% reduction in vu. The Ki value was corrected for the NCF affinity (Km values for both OXA-24/40 and ADC-33) with the Cheng–Prusoff equation (Equation (2)): (2) Ki=IC50/(1+[NCF]/KmNCF)

A further assay has as its target ADC-33 (Acinetobacter baumannii, UniProt A7Y407). The assay is described as above. In kind it is biochemical. Particulars: for Ki: corrected for NCF affinity, 5 min pre-incubation, pH 7.4. Here is the method: as §1, §2, §3
Assay [2] deals with E. coli DH10B pBCSK, blaADC-7. Further details: method as in PMID 29144724. Particulars: without inhibitor; cited from earlier work.
For assay [3], the system named is A. baumannii ATCC 17978 native ADC KO, ADC-33 pQF1266. The assay is described as follows: Antimicrobial susceptibility testing, broth microdilution. The assay is classed as cell-based. Particulars: BLI none; ATCC 17978 ADC KO, ADC-33 pQF1266. As for the experimental part:
(§4) The inhibitory effects of both compounds were tested against ADC-33 and OXA-24/-40 in A. baumannii, their native host. ATCC 17978, with its intrinsic chromosomal ADC knocked out (intrinsic OXA still present), was used in these experiments. In this isolate, the ADC MICs were not lowered by the inhibitors as much as they were against the E. coli background (Table 4).
Plasmid pBCSK- containing the blaADC-33 gene was digested with PvuII, which released the blaADC-33 gene, along with the lac promoter, which drives expression. This PvuII fragment was cloned into the SmaI site of the pQF1266 plasmid.
(§5) pWH1266 is a vector that replicates in A. baumannii, and the […] pWH1266 construct was generated as follows. The TEM gene was removed using inverse PCR, and an Xba1 site was engineered into the vector. blaOXA-24/40 and its upstream XerC/XerD were amplified from strain NM55. The amplified gene was cloned into the Xba1 site of the altered pWH1266 vector. The construct was confirmed using PCR and sequencing. Both blaADC-33 pQF1266 and […] pWH1266 were then expressed in A. baumannii ATCC 17978 that had the intrinsic chromosomal ADC gene knocked out.
(§6) The chromosomal blaADC-51 gene in ATCC 17978 was deleted and replaced with an apramycin resistance cassette using the recombineering method described by Tucker et al.. Primers used for this deletion were: Del AmpC-apra.For: […]; and Del AmpC-apra.Rev: […]. The correct deletion mutant was confirmed using PCR and sequencing.
(§7) Testing of susceptibility to standard antibiotics was performed with broth microdilution according to CLSI guidelines. MICs for CAZ, CTX, FEP, and IMI were determined using cation-adjusted Mueller–Hinton broth according to CLSI methods, and CR167 or 6b was used at a fixed concentration of 10 mg/L. All MICs were interpreted according to the 2022 Clinical and Laboratory Standards Institute (CLSI) guidelines.

The subject of assay [4] is A. baumannii ATCC 17978 native ADC KO, OXA-24 pWH1266. The assay is described as above. In kind it is cell-based. Particulars: BLI none; ATCC 17978 ADC KO, OXA-24 pWH1266. As for the experimental part:
as §4, §5, §6, §7

Assay [5] deals with clinical A. baumannii isolate PR474 (OXA-23, OXA-24, OXA-65, ADC-218). The assay is described as follows: Antimicrobial susceptibility testing, clinical isolate, broth microdilution. The assay is classed as cell-based. Particulars: BLI none; PR474. Here is the method:
(§8) Clinical A. baumannii isolates containing ADC-33 or OXA-24/-40 in combination with various other well-defined β-lactamases were also tested against CR167 and 6b (Table 5).
(§9) The clinical A. baumannii isolates used to test the β-lactamase inhibitors were selected from a previously well-characterized collection in our lab. They were chosen as they had either ADC-33 and/or OXA-24 in combination with other known β-lactamases (for specific combinations, see Table 5).
as §7
On the technique in general: In broth dilution the organism is exposed to a series of concentrations in liquid medium.

Assay [6] deals with clinical A. baumannii isolate PR408 (OXA-24, OXA-71, ADC-212). The assay is described as above. The assay is classed as cell-based. Particulars: BLI none; PR408. As for the experimental part: as §8, §9, §7
The test system of assay [7] is clinical A. baumannii isolate PR378 (OXA-24, OXA-65, TEM-1). The description is as above. The assay is classed as cell-based. Particulars: BLI none; PR378. As for the experimental part:
as §8, §9, §7

In assay [8] the test system is clinical A. baumannii isolate PR328 (OXA-23, OXA-82, ADC-33). The description is as above. Particulars: BLI none; PR328. In kind it is cell-based. As for the experimental part: as §8, §9, §7
Assay [9] concerns clinical A. baumannii isolate PR462 (OXA-24, OXA-65, ADC-214). The description is as above. In kind it is cell-based. Particulars: BLI none. Here is the method:
as §8, §9, §7

Assay [10] has as its system clinical A. baumannii isolate PR396 (OXA-82, ADC-33). The description is as above. In kind it is cell-based. Particulars: BLI none. Here is the method: as §8, §9, §7
The subject of assay [11] is clinical A. baumannii isolate PR323 (OXA-24, OXA-65, ADC-218). The assay is described as above. In kind it is cell-based. Particulars: BLI none; PR323. Here is the method:
as §8, §9, §7

In assay [12] the test system is E. coli DH10B, ADC-7 in pBCSK-. The assay is described as follows: Antimicrobial susceptibility testing, broth microdilution. Particulars: BLI none; E. coli DH10B ADC-7 pBCSK-. In kind it is cell-based. As for the experimental part: (§10) Based upon the inhibitor kinetics (Ki determinations), CR167 and the sulfonamidoboronic acid 6b were tested against E. coli strains expressing ADC-7 and ADC-33 cloned into pBCSK- (DH10B) (Table 3).
(§11) blaADC-7 pBCSK- and blaADC-33 pBCSK- were cloned and expressed in E. coli DH10B cells as previously described.
as §7

The test system of assay [13] is E. coli DH10B, ADC-33 in pBCSK-. The assay is described as above. The assay is classed as cell-based. Particulars: BLI none; E. coli DH10B ADC-33 pBCSK-. As for the experimental part:
as §10, §11, §7

The subject of assay [14] is OXA-24/40. On the set-up: method as in PMID 20299220. Particulars: cited from earlier work.

T1 sequence (Q8RLA6 22-275): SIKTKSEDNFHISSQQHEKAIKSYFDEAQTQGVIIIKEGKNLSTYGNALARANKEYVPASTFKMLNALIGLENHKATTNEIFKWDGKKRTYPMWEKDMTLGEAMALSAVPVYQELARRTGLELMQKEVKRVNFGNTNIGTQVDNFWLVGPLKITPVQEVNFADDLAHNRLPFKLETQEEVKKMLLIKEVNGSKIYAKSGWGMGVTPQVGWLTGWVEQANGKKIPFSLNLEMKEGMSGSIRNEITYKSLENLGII

On to `C[C@@H](NS(=O)(=O)Cc1ccccc1)B(O)O` [6a], for which the Ki on OXA-24/40 [1] stood at 630 ± 70 µM; at ADC-33 it was 3.1 ± 0.5 µM. The “fold less potent than 6b, ADC-33” value on ADC-33 (ratio of Ki, 6a vs 6b) amounted to 4 fold.
Consider `CC[C@@H](NS(=O)(=O)Cc1ccccc1)B(O)O` [6c], for which the Ki at OXA-24/40 [1] was greater than 1000 µM; on ADC-33, 193 ± 23 µM.
On to `CC[C@@H](NS(=O)(=O)Cc1cccc(C(=O)O)c1)B(O)O` [6d], for which the results for the Ki at OXA-24/40 [1] and at ADC-33 were 320 ± 30 µM and 22 ± 3 µM, respectively.
In the same order, the values of `CC[C@H](NS(=O)(=O)Cc1cccc(C(=O)O)c1)B(O)O` [6e] are greater than 1000 µM and 3.7 ± 0.6 µM.
Regarding `CC(C)(O/N=C(\C(=O)N[C@@H]1C(=O)N2C(C(=O)[O-])=C(C[n+]3ccccc3)CS[C@H]12)c1csc(N)n1)C(=O)O` [CAZ, ceftazidime, reference compound], the “MIC for CAZ alone” value in [2] was 64 µg/mL. Moreover, the “MIC, antibiotic alone” value in assay [3] was 128 µg/mL; in assay [4], 8 µg/mL; in [5], 4096 µg/mL; in assay [6] it was 1024 µg/mL; in assay [7], 64 µg/mL; in assay [8], 2048 µg/mL. Also, the “MIC, antibiotic alone” value in assay [9] was determined as 256 µg/mL; in [10], 2048 µg/mL; in assay [11], 4096 µg/mL; in assay [12] it was 64 µg/mL; in assay [13], 2048 µg/mL.
As for `CO/N=C(\C(=O)N[C@@H]1C(=O)N2C(C(=O)O)=C(COC(C)=O)CS[C@H]12)c1csc(N)n1` [CTX, Cefotaxime, reference compound], the “MIC, antibiotic alone” value in assay [3] came out at 32 µg/mL; in assay [4], 16 µg/mL; in [5], 1024 µg/mL; in assay [6], 1024 µg/mL; in assay [7], 64 µg/mL; in assay [8], 256 µg/mL. The “MIC, antibiotic alone” value stood at 1024 µg/mL in assay [9]; 512 µg/mL in [10]; 2048 µg/mL in [11]; 64 µg/mL in assay [12]; 128 µg/mL in assay [13].
For orientation: IC50 means the concentration needed to halve the response being measured. As for `O=S(=O)(NCB(O)O)c1cc2c(Cl)ccc(Cl)c2s1` [DSABA, 4,7-dichloro-1-benzothien-2-yl-sulfonylaminomethyl boronic acid], the IC50 in the assay with OXA-24/40 [14] was 5.6 µM.
With `CO/N=C(\C(=O)N[C@@H]1C(=O)N2C(C(=O)[O-])=C(C[N+]3(C)CCCC3)CS[C@H]12)c1csc(N)n1` [FEP, cefepime, reference compound], the “MIC, antibiotic alone” value in assay [3] was 4 µg/mL; in assay [4], 32 µg/mL; in assay [12] it was 0.5 µg/mL; in assay [13], 0.5 µg/mL.
`C[C@@H](O)[C@H]1C(=O)N2C(C(=O)O)=C(SCCN=CN)C[C@H]12` [IMI, reference compound]: the “MIC, antibiotic alone” value is 128 µg/mL in assay [5]; 128 µg/mL in [6]; 256 µg/mL in assay [7]; 128 µg/mL in assay [8]; 64 µg/mL in [9]; 64 µg/mL in assay [10]. For the same compound, the “MIC, antibiotic alone” value in assay [11] worked out at 128 µg/mL.

(Values after paper PMC10135033, “Sulfonamidoboronic Acids as “Cross-Class” Inhibitors of an Expanded-Spectrum Class C Cephalosporinase, ADC-33, and a Class D Carbapenemase, OXA-24/40: Strategic Compound Design to Combat Resistance in Acinetobacter baumannii” (Antibiotics, 2023).)
